Data set [1] can be described thus: Distribution coefficient (log D6.8), pH 6.8 isotonic phosphate buffer/n-octanol. The format is physicochemical. Particulars: n-octanol/pH 6.8 isotonic phosphate buffer; 1-octanol/isotonic phosphate buffer (pH 6.8). The procedure: Distribution coefficients (log D6.8) of the PARP inhibitors and their derivatives were measured using a pH 6.8 isotonic phosphate buffer/n-octanol system, as described in a previous paper.

The test system of data set [2] is PARP. Set-up: method as in PMID 30196390, PMID 17235412. Particulars: cited from earlier work.
Data set [3] deals with murine macrophage RAW264.7 cells challenged with LPS. The data set can be described thus: LPS-mediated induction of iNOS and COX-2 in RAW264.7 cells (Western blot). The format is cell-based. Particulars: pretreated 1 h with 5-ASA (20 mM), 3-AB (1 mM), 5-AIQ (10 μM), then LPS 24 h. How it is done:
Tissue samples (0.2 g/mL) were homogenized in pre-chilled radioimmunoprecipitation assay buffer (50 mM Tris-HCl [pH 7.4], 1 mM EDTA, 0.7% Na deoxycholate, 1% NP-40, 150 mM NaCl, 0.3 μM aprotinin, 1 μM pepstatin, and 1 mM phenylmethylsulfonyl fluoride). The homogenates were centrifuged at 10,000× g at 4 °C for 10 min, followed by agitation on ice for 30 min. Whole and nuclear cell lysates were prepared as described previously. The protein concentrations in the lysates were determined using bicinchoninic acid (Thermo Fisher Scientific, Waltham, MA, USA) according to the manufacturer’s instructions. Cell and tissue lysates were separated by SDS-PAGE on 10% and 7.5% gels. Nrf2, HO-1, cyclooxygenase-2 (COX-2), and inducible nitric oxide synthase (iNOS) proteins were detected using the following antibodies: anti-Nrf2 (sc-365949, Santa Cruz Biotechnology, Dallas, TX, USA), anti-HO-1 (sc-136961, Santa Cruz Biotechnology), anti-COX-2 (sc-365374, Santa Cruz Biotechnology), anti-iNOS (NOS-2) antibody (sc-7271, Santa Cruz Biotechnology), and secondary antibodies corresponding to the primary antibodies (Santa Cruz Biotechnology). Protein bands were visualized using SuperSignal chemiluminescence substrate (Thermo Fisher Scientific). α-Tubulin were detected using antibodies specific to each protein (Santa Cruz Biotechnology) as loading controls. […]
On the technique in general: A western blot detects proteins with antibodies after separation by electrophoresis.

The subject of data set [4] is Caco-2 cell monolayer. The data set can be described thus: Cell permeability via Caco-2 cell monolayer. In kind it is in vitro ADME. To be noted: 500 µM apical, concentration determined in basolateral compartment. How it is done:
Caco-2 cells (4 × 10^5 per insert) were seeded and grown in Transwell 6-well inserts with a pore size of 0.4 μm (SPL Inc., Houston, TX, USA) until the transepithelial electrical resistance value (EMD Millipore, Billerica, MA, USA) reached 2000 Ω.cm^2. After removing the culture medium (DMEM) containing 1% penicillin/streptomycin from the basolateral and apical (insert) compartments, the apical compartment was filled with DMEM without phenol red (2 mL) containing PARP inhibitors and their derivatives (500 μM), whereas the basolateral compartment was filled with DMEM without phenol red (3 mL). At appropriate time intervals, the drug concentration in the basolateral compartment was determined by HPLC.
(Caco-2 monolayers are a common model of the intestinal barrier.)

Data set [5] can be described thus: Drug concentration in the cecum after oral administration. To be noted: rats. In kind it is in vivo, rat. The procedure:
Male Sprague–Dawley rats were fasted for 24 h but had access to water. 5-AIQ (10 mg/kg), AQSA-Glu (equivalent to 10 mg/kg 5-AIQ), 3-AB (17 mg/kg), and ABSA (equivalent to 17 mg/kg 3-AB) in PBS (1.0 mL) were administered to the rats by oral gavage. Blood samples were collected via cardiac puncture at 2, 4, and 8 h after the oral gavage. The blood samples were centrifuged at 10,000× g at 4 °C for 10 min to obtain the plasma (0.3 mL). The plasma (0.1 mL) was transferred to a centrifuge tube and mixed with methanol (0.9 mL). The supernatants were filtered through a membrane filter (0.45 μm), and then the filtrate (20.0 μL) was subjected to HPLC analysis. To determine drug concentrations in the cecum, cecal contents were collected at 2, 4, and 8 h after oral gavage and mixed with pH 6.8 isotonic phosphate buffer to make a 10% suspension, which was subjected to centrifugation at 10,000× g for 10 min at 4 °C. The supernatants (0.1 mL) were transferred to fresh microtubes, followed by the addition of MeOH (0.9 mL). After centrifugation at 10,000× g at 4 °C for 7 min and subsequent filtration through a membrane filter (0.45 μm), the concentrations of PARP inhibitors in the filtrates (20 μL) were analyzed using HPLC.

Data set [6] can be described thus: Incubation in the cecal contents of rats (colonic activation). To be noted: 1 mM, 10% cecal contents, under nitrogen. In kind it is in vitro ADME, rat. The source says: Male Sprague–Dawley rats (250–260 g) were euthanized using CO2 gas before a midline incision was made. The contents of the intestinal tract were collected from the small intestine and cecum obtained from each of three rats and were suspended in pH 6.8 isotonic phosphate buffer to prepare a 20% (w/v) suspension. To maintain anaerobic conditions in the cecum, the cecal contents were collected under a N2 atmosphere in an atmospheric bag (AtmosBag, Sigma, St. Louis, MO, USA). Derivatives of PARP inhibitors (2 mM) dissolved in pH 6.8 isotonic phosphate buffer (5 mL) were mixed with the cecal and small intestinal suspensions (5 mL) and then incubated at 37 °C. The cecal contents were incubated in nitrogen. At predetermined time intervals, a 0.5 mL portion of the mixture was transferred to a microtube and centrifuged at 10,000× g at 4 °C for 10 min. The supernatants (0.1 mL) were mixed with MeOH (0.9 mL), followed by centrifugation at 10,000× g at 4 °C for 7 min. The supernatants were filtered through a membrane filter (0.45 μm), and the concentrations of PARP inhibitors in the filtrates (20 μL) were analyzed using HPLC.

Data set [7] concerns DNBS-induced rat colitis. The experiment in a line: DNBS-induced rat colitis model (anticolitic effects). The format is in vivo. How it is done:
DNBS-induced colitis was produced in rats as previously described. Two independent animal experiments were performed to evaluate the anticolitic effects of the drugs. For the first experiment, the rats were divided into the following five treatment groups (n = 5 per group): group 1 (normal group), oral gavage of 1.0 mL of PBS; group 2 (colitis group), oral gavage of 1.0 mL of PBS; group 3 (5-AIQ-treated colitis group), oral gavage of 5-AIQ (5 mg/kg) in 1.0 mL of PBS; group 4 [AQSA-Glu-treated colitis group (L)], oral gavage of AQSA-Glu (7.5 mg/kg, equivalent to 2.5 mg/kg of 5-AIQ) in 1.0 mL of PBS; and group 5 [AQSA-Glu-treated colitis group (H)], oral gavage of AQSA-Glu (15 mg/kg, equivalent to 5 mg/kg of 5-AIQ) in 1.0 mL of PBS. For the second experiment, the rats were divided into the following six treatment groups (n = 5 per group): group 1 (normal group), oral gavage of 1.0 mL of PBS; group 2 (colitis group), oral gavage of 1.0 mL of PBS; group 3 (SSZ-treated colitis group), oral gavage of SSZ (50 mg/kg) in 1.0 mL of PBS; group 4 (AQSA-Glu-treated colitis group), oral gavage of AQSA-Glu (15 mg/kg) in 1.0 mL of PBS; group 5 (mixture of AQSA-Glu + OSZ-treated colitis group), oral gavage of mixture of AQSA-Glu (15 mg/kg) and OSZ (19 mg/kg, half-equimolar to 50 mg/kg of SSZ) in 1.0 mL of PBS; and group 6 (ABSA-treated colitis group), oral gavage of ABSA (36 mg/kg, equivalent to 50 mg/kg of SSZ) in 1.0 mL of PBS. Three days after the induction of inflammation, each drug was orally administered to rats once daily, and the anticolitic effects were assessed 24 h after the sixth medication. The animal experiment scheme is shown in Supplementary Data S1. The colonic damage score was calculated using a scoring system modified from previously reported criteria. The modified scoring system is shown in Supplementary Data S2. Four independent observers who were blinded to the treatment conditions scored colonic damage according to the scoring system. Myeloperoxidase (MPO) activity in the distal colon (4 cm) was measured as described previously.
Tissue samples (0.2 g/mL) were homogenized in pre-chilled radioimmunoprecipitation assay buffer (50 mM Tris-HCl [pH 7.4], 1 mM EDTA, 0.7% Na deoxycholate, 1% NP-40, 150 mM NaCl, 0.3 μM aprotinin, 1 μM pepstatin, and 1 mM phenylmethylsulfonyl fluoride). The homogenates were centrifuged at 10,000× g at 4 °C for 10 min, followed by agitation on ice for 30 min. Whole and nuclear cell lysates were prepared as described previously. The protein concentrations in the lysates were determined using bicinchoninic acid (Thermo Fisher Scientific, Waltham, MA, USA) according to the manufacturer’s instructions.
Cell and tissue lysates were separated by SDS-PAGE on 10% and 7.5% gels. Nrf2, HO-1, cyclooxygenase-2 (COX-2), and inducible nitric oxide synthase (iNOS) proteins were detected using the following antibodies: anti-Nrf2 (sc-365949, Santa Cruz Biotechnology, Dallas, TX, USA), anti-HO-1 (sc-136961, Santa Cruz Biotechnology), anti-COX-2 (sc-365374, Santa Cruz Biotechnology), anti-iNOS (NOS-2) antibody (sc-7271, Santa Cruz Biotechnology), and secondary antibodies corresponding to the primary antibodies (Santa Cruz Biotechnology). Protein bands were visualized using SuperSignal chemiluminescence substrate (Thermo Fisher Scientific). α-Tubulin were detected using antibodies specific to each protein (Santa Cruz Biotechnology) as loading controls. Western blot images were quantified using Image Lab software (version 5.2 build 14; Bio-Rad, Hercules, CA, USA). The means of the quantified values are presented under each Western blot (n = 3 for cell experiments and n = 5 for animal experiments).
The levels of the inflammatory cytokine-induced neutrophil chemoattractant-3 (CINC-3) in the inflamed distal colon were determined using a CINC-3 ELISA kit (R&D Systems, Minneapolis, MN, USA). […]

The mark [8] stands for this setting: second experiment: SSZ 50 mg/kg, AQSA-Glu 15 mg/kg, AQSA-Glu 15 mg/kg + OSZ 19 mg/kg, ABSA 36 mg/kg, oral once per day, six treatments.

Each structure is given as a SMILES string. “Also recorded” adds a separate entry of the source.

In the case of `O=C(O)C[C@H](NC(=O)c1cc(/N=N/c2cccc3cnccc23)ccc1O)C(=O)O` [AQSA-Asp], the logD in data set [1] was -1.77.
In the case of `NC(=O)c1cccc(N)c1` [3-AB, 3-aminobenzamide, reference compound], in data set [2], the “concentrations eliciting significant PARP inhibition” value is given as “millimolar”. This compound showed a logD in data set [1] of 0.33.
`Nc1ccc(O)c(C(=O)O)c1` [5-ASA, 5-aminosalicylic acid]: in data set [3], the “levels of iNOS and COX-2 proteins” value is “reduced the levels of iNOS and COX-2 proteins”.
On to `NC(=O)c1cccc(N=Nc2ccc(O)c(C(=O)O)c2)c1` [ABSA, 5-[(3-carbamoylphenyl)diazenyl]-2-hydroxybenzoic acid], for which the “transport via the Caco-2 cell monolayer (cell permeability)” value in data set [4] is “less cell-permeable than 3-AB”. For the same compound, in data set [5] (ABSA 36 mg/kg (equivalent to 17 mg/kg of 3-AB) vs 3-AB 17 mg/kg, 2, 4, 8 h), the “amount of 3-AB delivered to the cecum” value is “much greater amount”. Besides, the “amount and temporal pattern of 5-ASA accumulation in the cecum” value in data set [5] (ABSA 36 mg/kg vs equimolar SSZ 50 mg/kg, 2, 4, 8 h) was “comparable”. Moreover, in data set [6], the “conversion rate in cecal contents” value is “slightly higher than that of the derivatives of 5-AIQ”. The compound further showed a logD in data set [1] of -1.07. For the same compound, in data set [7] (second experiment, same doses), the “effectiveness against rat colitis (anticolitic effects)” value was “more effective against rat colitis than SSZ and AQSA-Glu”. Also, in data set [7] (setting [8]), the “colonic damage and mucosal recovery” value was “greater effectiveness in healing colonic injury, including mucosa, than the other single-treatment groups; also recorded: as effective against colonic damage as the mixture”; the “inflammatory indices: MPO activity, CINC-3, iNOS and COX-2 in inflamed colon” value is reported as “greater; also recorded: suppressed to a greater extent by ABSA than by SSZ or AQSA”.
Regarding `Nc1cccc2cnccc12` [5-AIQ, 5-aminoisoquinoline, reference compound], the “concentrations eliciting significant PARP inhibition” value in data set [2] was “micromolar”. In data set [1], the logD turned out to be 3.16.
For `O=C(O)CC[C@H](NC(=O)c1cc(/N=N/c2cccc3cnccc23)ccc1O)C(=O)O` [AQSA-Glu], in data set [5] (AQSA-Glu 29.3 mg/kg (equivalent to 10 mg/kg of 5-AIQ) vs 5-AIQ 10.0 mg/kg, 2, 4, 8 h), the “amount of 5-AIQ delivered to the cecum” value was “much greater amount”. The logD in data set [1] was -1.83. In addition, the “mucosal recovery (H&E staining of inflamed distal colon)” value in data set [7] (first experiment, oral once per day for 6 days) is “greater mucosal recovery”. In addition, the “colonic damage (colonic damage score)” value in data set [7] (first experiment: AQSA-Glu 7.5 and 15 mg/kg (equivalent to 2.5 and 5 mg/kg of 5-AIQ) vs 5-AIQ 5 mg/kg, oral once per day for 6 days) is “substantially improved colonic damage in a dose-dependent manner and were more effective in ameliorating colonic damage than 5-AIQ”. Also, in data set [7] (first experiment: AQSA-Glu low and high doses vs 5-AIQ 5 mg/kg, oral once per day for 6 days), the “MPO activity and proinflammatory mediators (CINC-3, iNOS, COX-2) in inflamed distal colon” value is “more effective in suppressing MPO activity and reducing proinflammatory mediators in the inflamed distal colon than 5-AIQ”. Also, the “effectiveness against rat colitis” value in data set [7] (first experiment: AQSA-Glu low dose (2.5 mg/kg as 5-AIQ) vs 5-AIQ (5 mg/kg)) was “more effective against rat colitis than 5-AIQ”.
In data set [1], `O=C(O)c1cc(N=Nc2cccc3cnccc23)ccc1O` [AQSA, 2-hydroxy-5-(isoquinolin-5-yldiazenyl)benzoic acid] had a logD of 0.31.

Broadly, the logD is the decadic logarithm of the distribution of all forms, ionised or not, between an organic phase and buffer at a given pH. A high value points to higher lipophilicity.

(Values after PMC11728683, “Colon-Targeted Poly(ADP-ribose) Polymerase Inhibitors Synergize Therapeutic Effects of Mesalazine Against Rat Colitis Induced by 2,4-Dinitrobenzenesulfonic Acid” (Pharmaceutics, 2024).)
